According to PubChem BioAssay (NCI):
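Interpolation was linear, between the two tested concentrations surrounding the appropriate level; five concentrations were tested over 48 hours in 96-well plates. Here, GI50 denotes the concentration required for 50% inhibition of growth. TGI: total growth inhibition.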

Tested on: HT29 colon
Test: NCI anticancer screen, dose series, 48 h

SMILES	GI50 [µM]	TGI [µM]
OCCN(CCO)c1ncnc2c1ncn2Cc1ccc(CCl)cc1	32.5	> 100
Cc1ccc2c(C)c3c(ccc4ccccc43)c[n+]2c1	33.5	> 100
Cc1ccc(CN2CCC(C(=O)Nc3ccc(-c4cc5ccccc5[nH]4)cc3)CC2)o1	94.2	> 100
C=CC(=O)Nc1cc(Nc2ncc(C(=O)OC(C)C)c(-c3cn(C)c4ccccc34)n2)c(OC)cc1N(C)CCN(C)C	2.32	5.99
CNS(=O)(=O)NNS(=O)(=O)c1ccccc1	–	> 100
Cc1cc(NS(=O)(=O)c2ccc(Nc3c4ccccc4nc4c(C(=O)N5CCN(CCOS(C)(=O)=O)CC5)cccc34)cc2)no1	–	> 100
O=C(O)CCC(NC(=O)c1ccc(Nc2nc3ccccc3nc2-c2cccs2)cc1)C(=O)O (stereo not given)	–	> 100
NC1=NCCC1(c1ccccc1)c1ccccn1 (stereo not given)	–	> 100
CCOC(=O)Cn1c(C(F)(F)F)nc2nc(Cl)c(Cl)nc21	–	> 100
CC1CCc2nc[nH]c(=O)c21 (stereo not given)	> 100	> 100
Fc1[nH]nc2ccc([C@@H]3Nc4ccc5[nH]ncc5c4[C@H]4C5CCC(C5)[C@@H]34)cc12 (stereo not given in full)	0.439	12.8
Nc1ccccc1C#C/C=C\C#Cc1ccccc1OC(F)(F)F	3.62	28.7
Cc1cnc(NCCCN(C)C)c2c1[nH]c1ccc3cc(O)ccc3c12	–	2.53
Fc1ccc(NC(=S)SCc2ccc3c(c2)OCO3)cc1F	–	45.3

Tested on: OVCAR-3 ovarian
Test: NCI anticancer screen, dose series, 48 h

SMILES	GI50 [µM]	TGI [µM]
OCCN(CCO)c1ncnc2c1ncn2Cc1ccc(CCl)cc1	19.4	34.9
Cc1ccc2c(C)c3c(ccc4ccccc43)c[n+]2c1	2.64	16.8
Cc1ccc(CN2CCC(C(=O)Nc3ccc(-c4cc5ccccc5[nH]4)cc3)CC2)o1	> 100	> 100
C=CC(=O)Nc1cc(Nc2ncc(C(=O)OC(C)C)c(-c3cn(C)c4ccccc34)n2)c(OC)cc1N(C)CCN(C)C	2.58	12.3
CNS(=O)(=O)NNS(=O)(=O)c1ccccc1	–	> 100
Cc1cc(NS(=O)(=O)c2ccc(Nc3c4ccccc4nc4c(C(=O)N5CCN(CCOS(C)(=O)=O)CC5)cccc34)cc2)no1	–	> 100
O=C(O)CCC(NC(=O)c1ccc(Nc2nc3ccccc3nc2-c2cccs2)cc1)C(=O)O (stereo not given)	–	> 100
NC1=NCCC1(c1ccccc1)c1ccccn1 (stereo not given)	–	> 100
CCOC(=O)Cn1c(C(F)(F)F)nc2nc(Cl)c(Cl)nc21	–	54.2
CC1CCc2nc[nH]c(=O)c21 (stereo not given)	> 100	> 100
Fc1[nH]nc2ccc([C@@H]3Nc4ccc5[nH]ncc5c4[C@H]4C5CCC(C5)[C@@H]34)cc12 (stereo not given in full)	0.39	2.97
Nc1ccccc1C#C/C=C\C#Cc1ccccc1OC(F)(F)F	3.49	20.5
Cc1cnc(NCCCN(C)C)c2c1[nH]c1ccc3cc(O)ccc3c12	–	1.59
Fc1ccc(NC(=S)SCc2ccc3c(c2)OCO3)cc1F	–	> 100

Tested on: OVCAR-5 ovarian
Test: NCI anticancer screen, dose series, 48 h

SMILES	GI50 [µM]	TGI [µM]
OCCN(CCO)c1ncnc2c1ncn2Cc1ccc(CCl)cc1	14.1	27.8
Cc1ccc2c(C)c3c(ccc4ccccc43)c[n+]2c1	39.5	> 100
Cc1ccc(CN2CCC(C(=O)Nc3ccc(-c4cc5ccccc5[nH]4)cc3)CC2)o1	> 100	> 100
C=CC(=O)Nc1cc(Nc2ncc(C(=O)OC(C)C)c(-c3cn(C)c4ccccc34)n2)c(OC)cc1N(C)CCN(C)C	2.72	18.1
CNS(=O)(=O)NNS(=O)(=O)c1ccccc1	–	> 100
Cc1cc(NS(=O)(=O)c2ccc(Nc3c4ccccc4nc4c(C(=O)N5CCN(CCOS(C)(=O)=O)CC5)cccc34)cc2)no1	–	> 100
O=C(O)CCC(NC(=O)c1ccc(Nc2nc3ccccc3nc2-c2cccs2)cc1)C(=O)O (stereo not given)	–	> 100
NC1=NCCC1(c1ccccc1)c1ccccn1 (stereo not given)	–	> 100
CCOC(=O)Cn1c(C(F)(F)F)nc2nc(Cl)c(Cl)nc21	–	> 100
CC1CCc2nc[nH]c(=O)c21 (stereo not given)	> 100	> 100
Fc1[nH]nc2ccc([C@@H]3Nc4ccc5[nH]ncc5c4[C@H]4C5CCC(C5)[C@@H]34)cc12 (stereo not given in full)	3.06	14.6
Nc1ccccc1C#C/C=C\C#Cc1ccccc1OC(F)(F)F	13	44.1
Cc1cnc(NCCCN(C)C)c2c1[nH]c1ccc3cc(O)ccc3c12	–	3.95
Fc1ccc(NC(=S)SCc2ccc3c(c2)OCO3)cc1F	–	46.3

Tested on: SF-268 CNS
Test: NCI anticancer screen, dose series, 48 h

SMILES	GI50 [µM]	TGI [µM]
OCCN(CCO)c1ncnc2c1ncn2Cc1ccc(CCl)cc1	19.8	49.8
Cc1ccc2c(C)c3c(ccc4ccccc43)c[n+]2c1	2.87	15.9
Cc1ccc(CN2CCC(C(=O)Nc3ccc(-c4cc5ccccc5[nH]4)cc3)CC2)o1	> 100	> 100
C=CC(=O)Nc1cc(Nc2ncc(C(=O)OC(C)C)c(-c3cn(C)c4ccccc34)n2)c(OC)cc1N(C)CCN(C)C	6.88	24.1
CNS(=O)(=O)NNS(=O)(=O)c1ccccc1	–	> 100
Cc1cc(NS(=O)(=O)c2ccc(Nc3c4ccccc4nc4c(C(=O)N5CCN(CCOS(C)(=O)=O)CC5)cccc34)cc2)no1	–	> 100
O=C(O)CCC(NC(=O)c1ccc(Nc2nc3ccccc3nc2-c2cccs2)cc1)C(=O)O (stereo not given)	–	> 100
NC1=NCCC1(c1ccccc1)c1ccccn1 (stereo not given)	–	> 100
CCOC(=O)Cn1c(C(F)(F)F)nc2nc(Cl)c(Cl)nc21	–	> 100
CC1CCc2nc[nH]c(=O)c21 (stereo not given)	> 100	> 100
Fc1[nH]nc2ccc([C@@H]3Nc4ccc5[nH]ncc5c4[C@H]4C5CCC(C5)[C@@H]34)cc12 (stereo not given in full)	2.59	19.8
Nc1ccccc1C#C/C=C\C#Cc1ccccc1OC(F)(F)F	6.44	32
Cc1cnc(NCCCN(C)C)c2c1[nH]c1ccc3cc(O)ccc3c12	–	2.07
Fc1ccc(NC(=S)SCc2ccc3c(c2)OCO3)cc1F	–	52.8

Tested on: SNB-19 CNS
Test: NCI anticancer screen, dose series, 48 h

SMILES	GI50 [µM]	TGI [µM]
OCCN(CCO)c1ncnc2c1ncn2Cc1ccc(CCl)cc1	19.9	41.2
Cc1ccc2c(C)c3c(ccc4ccccc43)c[n+]2c1	2.84	24.7
Cc1ccc(CN2CCC(C(=O)Nc3ccc(-c4cc5ccccc5[nH]4)cc3)CC2)o1	> 100	> 100
C=CC(=O)Nc1cc(Nc2ncc(C(=O)OC(C)C)c(-c3cn(C)c4ccccc34)n2)c(OC)cc1N(C)CCN(C)C	6.8	22.4
CNS(=O)(=O)NNS(=O)(=O)c1ccccc1	–	> 100
Cc1cc(NS(=O)(=O)c2ccc(Nc3c4ccccc4nc4c(C(=O)N5CCN(CCOS(C)(=O)=O)CC5)cccc34)cc2)no1	–	> 100
O=C(O)CCC(NC(=O)c1ccc(Nc2nc3ccccc3nc2-c2cccs2)cc1)C(=O)O (stereo not given)	–	> 100
NC1=NCCC1(c1ccccc1)c1ccccn1 (stereo not given)	–	> 100
CCOC(=O)Cn1c(C(F)(F)F)nc2nc(Cl)c(Cl)nc21	–	> 96.2
CC1CCc2nc[nH]c(=O)c21 (stereo not given)	> 100	> 100
Fc1[nH]nc2ccc([C@@H]3Nc4ccc5[nH]ncc5c4[C@H]4C5CCC(C5)[C@@H]34)cc12 (stereo not given in full)	1.22	18.1
Nc1ccccc1C#C/C=C\C#Cc1ccccc1OC(F)(F)F	2.55	9.72
Cc1cnc(NCCCN(C)C)c2c1[nH]c1ccc3cc(O)ccc3c12	–	3.12
Fc1ccc(NC(=S)SCc2ccc3c(c2)OCO3)cc1F	–	39.3
